Laboratory results as given in patent publication US10792377B2, “Compounds and method for imaging cancer” (Vanderbilt University, priority 2017, dated 2020).
Where two headings read alike, the source gives them in different places.

Tests used:
ovine COX-1 = biological target: T1, ovine COX-1 (Ovis aries, UniProt P05979); experiment: In vitro purified COX-1 inhibition assay (TLC, 14C-arachidonic acid); type: biochemical
T1 sequence (P05979 25-600): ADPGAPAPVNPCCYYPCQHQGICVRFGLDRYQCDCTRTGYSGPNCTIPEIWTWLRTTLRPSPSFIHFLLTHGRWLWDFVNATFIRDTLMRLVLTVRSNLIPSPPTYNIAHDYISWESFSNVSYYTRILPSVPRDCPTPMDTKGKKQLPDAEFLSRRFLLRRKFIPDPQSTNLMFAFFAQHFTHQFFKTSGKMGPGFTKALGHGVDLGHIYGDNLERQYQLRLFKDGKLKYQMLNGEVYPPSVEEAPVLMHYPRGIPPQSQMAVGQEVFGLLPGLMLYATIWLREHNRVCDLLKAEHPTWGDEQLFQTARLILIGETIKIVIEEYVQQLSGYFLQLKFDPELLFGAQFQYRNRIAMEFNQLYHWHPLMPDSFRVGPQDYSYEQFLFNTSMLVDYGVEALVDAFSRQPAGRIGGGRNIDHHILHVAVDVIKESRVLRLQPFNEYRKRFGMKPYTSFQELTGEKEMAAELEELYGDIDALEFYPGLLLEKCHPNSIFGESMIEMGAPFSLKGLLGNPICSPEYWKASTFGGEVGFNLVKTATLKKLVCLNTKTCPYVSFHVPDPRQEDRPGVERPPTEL
Procedure: The in vitro cyclooxygenase (ovine COX-1 or human COX-2) inhibitory activities of these probes were tested by a previously described TLC assay (FIGS. 19-21). Briefly, reaction mixtures of 200 μL consisted of hematin-reconstituted protein in 100 mM Tris-HCl, pH 8.0, 500 μM phenol, and [1-^14C]arachidonic acid (50 μM, about 55-57 mCi/mmol, Perkin Elmer).
Inhibition Assay Using Purified COX-1 and COX-2. Inhibition of purified ovine COX-1 or mouse COX-2 by test compounds was assayed by a previously described method, which quantifies the conversion of [1-^14C]arachidonic acid to [1-^14C]prostaglandin products. Reaction mixtures of 200 ∝L consisted of hematin-reconstituted protein in 100 mM Tris-HCl, pH 8.0, 500 μM phenol, and [1-^14C]arachidonic acid (50 μM, ˜55-57 mCi/mmol, Perkin Elmer). […] Reactions were terminated by solvent extraction in diethyl ether:methanol:1 M citrate buffer, pH 4.0 (30:4:1). The phases were separated by centrifugation at 2000 g for 2 min, and the organic phase was spotted on a thin-layer chromatography plate (EMD Kieselgel 60, VWR). The plate was developed in ethyl acetate:methylene chloride:glacial AcOH (75:25:1) at 4° C. Radiolabeled products were quantified with a radioactivity scanner (Bioscan, Inc., Washington, D.C.).

[1] = Fluorometry: extinction, quantum yield, fluorescence in DMSO/EtOH; type: physicochemical
Procedure: The TEMPO- and PROXYL-fluorocoxib probes are non-fluorescent (Φfl<0.3) in their non-trapped form, whereas fluorocoxib A or B are highly fluorescent (Φfl[…]) (FIG. 13). However, the absorbance and fluorescence of the TEMPO- and PROXYL-fluorocoxib probes increases in a time-dependent fashion when incubated in a DMSO/EtOH solution (FIGS. 14-15). Referring to FIG. 15, it is noted that at about 16 hours, fluorescence (ex 586 nm) read about 120,000 cps at 607 nm. Turning to FIG. 16, as compared to 5-ROX acid, which had extinction of 36/mM/cm at 580 nm and quantum yield of 0.94 at 604 nm, and fluorocoxib A, which had extinction of 45/mM/cm at 579 nm and quantum yield of 0.93 at 602 nm, fluorocoxib Q1 had extinction of less than 0.4/mM/cm at 586 nm and quantum yield of less than 0.36 at 607 nm. Without wishing to be bound by theory, it is believed that the time-dependent increase in fluorescence and measured fluorescence at 607 nm is the result of reduction/oxidation of fluorocoxib Q1 in the DMSO/EtOH solution (FIG. 16).
Fluorometry. Steady state fluorescence excitation and emission spectra were determined for each compound with a Spex 1681 Fluorolog spectrofluorometer, equipped with a 450 W xenon arc lamp. […]

1483 HNSCC cells = experiment: Fluorescence microscopy of 1483 HNSCC cells; type: cell-based, human; conditions: 1483 cells, 0.5 h preincubation
Procedure: To test the specific activation of probes in cancer cells, compound 1 was incubated at selected time points (0.5, 1.0, 2.0, 3.0 h). After washout, the cells were imaged under fluorescence microscope.
Fluorescence microscopy of 1483 HNSCC cells. Fluorescence imaging of human 1483 HNSCC cells by compound 1 was performed by a previously described method. Briefly, human 1483 HNSCC cells were grown to 60% confluence. The cells were incubated in 2.0 ml Hank's balanced salt solution (HBSS)/Tyrode's with 200 nM compound 1 for 30 min at 37° C. The cells were then washed briefly three times and incubated in HBSS/Tyrode's for 30 min at 37° C. Following the required washout period, the cells were imaged in 2.0 ml fresh HBSS/Tyrode's on a Zeiss Axiovert 25 Microscope with the propidium iodide filter (0.5-1.0 sec exposure, gain of 2).

SMILES	IC50 (ovine COX-1) [µM]	extinction ([1]; at 580 nm (5-ROX acid), 579 nm (fluorocoxib A), 586 nm (fluorocoxib Q1)) [mM⁻¹ cm⁻¹]	quantum yield ([1]; at 604 nm (5-ROX acid), 602 nm (fluorocoxib A), 607 nm (fluorocoxib Q1))	intracellular fluorescence (1483 HNSCC cells)	IC50 (ovine COX-1; high throughput screening of fluorocoxib and chemocoxib libraries, read-out: purified COX-1 IC50) [µM]	IC50 (ovine COX-1; purified ovine COX-1 (22.5 nM), inhibitor 20 min, then 1-14C-AA (50 μM) 37° C. 30 s, duplicates, read-out: oCOX-1 IC50) [µM]
COc1ccc2c(c1)c(CC(=O)NCCCCNC(=O)c1ccc(C3=c4cc5c6c(c4Oc4c3cc3c7c4CCCN7CCC3)CCC[N+]=6CCC5)c(C(=O)NC3CC(C)(C)N([O])C(C)(C)C3)c1)c(C)n2C(=O)c1ccc(Cl)cc1 [Compound 1]	> 25					
COc1ccc2c(c1)c(CC(=O)NCCCCNC(=O)c1ccc(C3=c4cc5c6c(c4Oc4c3cc3c7c4CCCN7CCC3)CCC[N+]=6CCC5)c(C(=O)[O-])c1)c(C)n2C(=O)c1ccc(Cl)cc1 [Fluorocoxib A, reference compound]		45	0.93	bright fluorescence	> 25	> 25
